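Briefly, cells in 96-well plates were exposed to five compound concentrations for 48 h, and endpoints were estimated by linear interpolation. The concentration for 50% growth inhibition is given as GI50. Definition used: TGI = concentration required for complete inhibition of growth.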
How the values were obtained:
Test in all cases: NCI anticancer screen, dose series, 48 h
DU-145 prostate = test system: DU-145 prostate
HS 578T breast = test system: HS 578T breast
MCF7 breast = test system: MCF7 breast
MDA-N = test system: MDA-N

| SMILES | GI50 (DU-145 prostate) [µM] | TGI (DU-145 prostate) [µM] | GI50 (HS 578T breast) [µM] | TGI (HS 578T breast) [µM] | GI50 (MCF7 breast) [µM] | TGI (MCF7 breast) [µM] | TGI (MDA-N) [µM] |
| --- | --- | --- | --- | --- | --- | --- | --- |
| O=C(Nc1ccccc1C(=O)N/N=C(\c1ccccc1)c1ccccn1)c1ccc(F)cc1 | 0.351 | > 100 | 6.48 | > 100 | 0.308 | > 100 | – |
| Cc1ccc(C(C)C)cc1NC(=O)Nc1ccc([N+](=O)[O-])cc1 | 2.49 | 12 | 1.66 | 5.18 | 1.95 | 5.72 | – |
| CC1=C(C(=O)Nc2ccc(Cl)c(Cl)c2)C(c2ccccc2O)NC(=O)N1 (stereo not drawn) | > 50 | > 50 | 32.2 | > 50 | – | – | – |
| Cc1cc(C(O)CN(C)C)cc2c1ccc1cc(C(C)C)ccc12 (stereo not drawn) | 2.19 | 4.08 | 2.58 | 8.92 | 1.71 | 3.19 | – |
| C=[CH][Sn]([CH]=C)([O]c1cccc2cccnc12)[O]c1cccc2cccnc12 | 7.29 | 23.2 | – | – | 3.11 | 12.6 | – |
| COc1cc([N+](=O)[O-])c2ncccc2c1[N+](=O)[O-] | 4.39 | 15.8 | 3.87 | 29.4 | 3.26 | 32.1 | – |
| Nc1ccc2c(c1)c(N)nn2C(=O)Nc1ccc(Cc2ccccc2)cc1 | 10.9 | 24 | 17.3 | 43 | 6.92 | 26.5 | – |
| CC1COCC(C)N1C1=C(Cl)C(=O)c2ccccc2C1=O (stereo not drawn) | 10.7 | 22.9 | 6.38 | 50.5 | 1.67 | 3.76 | – |
| CC1CC2(C)CC(=O)C1C1C(=O)N(CCN3CCCCC3)C(=O)C12 (stereo not drawn) | > 100 | > 100 | > 100 | > 100 | – | – | – |
| CC/C=C\C/C=C\C[C@H](O)C/C=C1/C(=O)C=C[C@@H]1C/C=C\CCCC(=O)OC | 3.6 | 14.6 | 6.59 | 46.7 | 0.329 | 5.2 | – |
| CO[C@@]12[C@@H]3NC3CN1C1=C(C(=O)C(N)=C(C)C1=O)[C@@H]2COC(N)=O (stereo partly drawn) | – | 11.9 | 6.32 | > 100 | 0.0809 | 7.55 | – |
| CCN(CC)CCN(C(=O)C(C)(C)C)c1ccccc1N | – | > 100 | – | – | – | > 100 | > 100 |
| CC1(C)OC2C(COS(N)(=O)=O)SC(n3cnc4cncnc43)C2O1 (stereo not drawn) | > 100 | > 100 | > 100 | > 100 | > 100 | > 100 | – |
| Oc1[nH]c2cc(Cl)ccc2c1/C=c1/ccc2c(c1)N=C(c1cc(F)cc(F)c1)N=2 | 1.98 | 4.45 | 1.55 | 10.2 | 1.62 | 11.3 | – |
| CCOc1cc(-c2ccc[nH]2)[nH]c1/C=C1\N=C(C)C(C(=O)OC)=C1C | 0.0549 | 1.56 | 0.0475 | 0.58 | 0.0369 | 0.467 | – |
| CC(=O)N(Cc1ccccc1)c1ccccc1I(=O)=O | 29.6 | > 100 | > 100 | > 100 | 16.5 | 40.5 | – |
| CC(=O)Oc1ccc(/C=N/NC(N)=S)nc1 | 2.36 | 8.38 | – | – | 2.13 | > 100 | – |
| CC1(C)CC[C@]2(C(N)=O)CC[C@]3(C)C(=CC[C@@H]4[C@@]5(C)C/C(=C/c6ccncc6)C(=O)C(C)(C)[C@@H]5CC[C@]43C)[C@@H]2C1 | 2.91 | 7.85 | 3.07 | > 100 | 2.52 | 10.5 | – |
| CN1CCN(c2nc(-c3ccncc3)nc3sc4c(c23)CCCCCC4)CC1 | 12.7 | 26.4 | 2.3 | 13.9 | 6.61 | 20.4 | – |
| O=c1c2ccccc2oc2ccc(OCCCCCCN3CCCCCC3)cc12 | 5.89 | 19 | 7.5 | 36.7 | 1.91 | 5.53 | – |
| COc1cccc(/C=C/C(=O)c2cc3c(N)c(C(=O)Nc4cccc5ccccc45)sc3nc2C)c1 | 1.14 | 2.86 | – | – | 0.339 | > 50 | – |
| O=c1[nH]c2ccccc2n1-c1n[nH]c2ccccc12 | 34 | > 100 | 23 | > 100 | 20.1 | > 100 | – |
| O=C(Cc1csc2nc(-c3ccc(Br)cc3)cn12)N/N=C/c1ccc(O)cc1 | 22.4 | 87.4 | 23.7 | 92.3 | 62.7 | > 100 | – |
| Cc1cc(Cl)ccc1Nc1nc(C(F)(F)F)ccc1C(=O)N1CCN(c2cccc(Cl)c2)CC1 | > 100 | > 100 | 3.89 | > 100 | 25.6 | > 100 | – |
| C#CCN(Cc1ccc2nc(N)[nH]c(=O)c2c1)c1ccc(C(=O)NC(CCC(=O)O)C(=O)O)cc1 (stereo not drawn) | – | > 100 | – | – | – | > 100 | > 100 |

— PubChem BioAssay (NCI)
